Patent publication US20140099354A1, “BIOPASSIVATING MEMBRANE STABILIZATION BY MEANS OF NITROCARBOXYLIC ACID-CONTAINING PHOSPHOLIPIDS IN PREPARATIONS AND COATINGS” (priority 2011, published 2014)
Blank lines part the entries; values can stand above or below the compound they belong to.

Experiments:
[1] = system: sciatic nerve; experiment: Viability of cryopreserved nerve grafts (Annexin-V staining, FACS); format: cell-based, rats; details: 100 mmolar solution 1 hour, −30° C. 72 hours
Description: The sciatic nerve was prepared and sectured in anesthetized rats. The nerve pieces were freed from connective tissue and divided into 3 parts. Specimens were placed in culture DMEM medium containing low a concentration of glucose (1 g/L) with L-glutamine (PAA, Pasching Austria) for 24 hours. […] Nerve specimens from the same animals that received no pretreatment served as controls. After incubation, the specimens were cultured for 24 hours. In a further control group, specimens were cryopreserved without any pretreatment. The specimens were covered with a sterile gauze pad moistened with culture medium. Thereafter the temperature was gradually cooled to −30° C. After 72 hours, the nerve pieces were gradually rewarmed to 37° C. After this, renewed culturing was done for 48 hours. The nerve pieces were dissected enzymatically then (collagenase A and D, Roche, Mannheim, Germany) followed by a mechanical separation through multiple uptake and release in a glass pipette. The isolated cells were washed and marked with a living/death staining (Annexin-V-Fluos staining Kit, Roche Diagnostics, Mannheim, Germany) and quantified using FACS analysis. The number of living cells identified was set in relation to the total cells count.

[2] = system: ovarian tissue strips; experiment: Cryopreservation of ovarian tissue strips: intact follicles; details: liquid nitrogen 14 days, cultured 14 days
[3] = Abrasion stability and traction work load of coated balloon catheters; format: physicochemical
Description: Balloon catheters were coated by means of the Langmuir-Schaefer procedure where the balloon segment was aligned longitudinally and coaxial to the solution surface, dipping into the liquid for approx. 1 mm over the entire length. Then the catheter was slowly rotated around its axis 5 times. Phospholipids were dissolved at a concentration of 3 mmol in an ion-free aqueous solution at 50° C. The solution was cooled and given to the coating solution then. In case of incomplete dissolution of the phospholipids or if they separated when cooled, DMSO was added at a concentration of up to 20 vol.-%, preferably up to 10 vol.-%. After coating, the catheters were vacuum dried for 8 hours in order to remove residual solvent.
The tubing was filled with a 10% human albumin solution at a temperature of 35° C. The cable system, which had previously been brought through the tubing was connected to the catheter tip and tracked outside the tubing by reversing pulleys, which allowed exactly vertically traction of the cable that was connected to a motorized winch. The winch was mounted on a digital precision balance. The catheters mounted in this manner were pulled through the tubing system and the weight changes measured by the balance, which represented the traction work load achieved for the passage of the catheter, was recorded continuously. These readings were integrated over time. The resultant values allow estimation of the total shear force that occurred during the passage of the catheter through the tubing system.

[4] = Tissue response to coated silicone implants in vivo after bleomycin; set-up: species or system Wistar rats; details: silicone cushions, subcutaneous, 7 to 90 days
Description: Induction of fibrotic tissue production by connective tissue activation as a consequence of implantation of foreign material was examined in an in-vivo animal model. As implant materials, sterile silicone cushions having a diameter of 1 cm were used.
In male Wistar rats (190-240 g) that were fed and housed under identical conditions for one week, general anaesthesia was performed by intramuscular injection of 0.008 mL/100 g ketamine and 0.004 mL/100 g xylocaln chloride 2%. Then the back of the animals was shaved, sterilized and infiltrated with xylocalne chloride. A paravertebral incision was made on both sides with a length of 1.5 cm followed by preparation of the subcutaneous tissue, so that on both sides approx. 2×2 cm cavities were preformed. Hemostasis was achieved by cauterization, if necessary. Then balls of cotton saturated with Bleomycin (cell-pharm GmbH, Hannover, Germany: 1% in 0.9% NaCl solution) were inserted into the cavities for 3 minutes and then removed. Without rinsing the cavities, the implants coated with a nitrated phospholipid were inserted into the cavity on the left side and the implants coated with natural phospholipid into the cavity on the right side. Thereafter, a layer by layer wound closure was performed and a sterile adhesive bandage was applied.
The animals were kept according to standard conditions for 7, 14, 30, 60 and 90 days. At any study time endpoint, two animals were euthanized. After death the well visible and palpable implants were removed using en-block resection technique. The resected specimens were fixed and embedded in paraffin. Then they were cut in half and the liquid silicone was removed. The specimens were embedded again and cut into thin slices which were stained with H & E and Sirius red, and evaluated by light microscopy. Evaluation was done according to the following criteria:
A1: none; A2: occasional monocytic cells or lymphocytes; A3: moderate numbers or groups of monocytic cells or lymphocytes; A4: dense infiltration of monocytes, eosinophils, or giant cells.
B1: none; B2: collagen-rich layer around the implant; B3: thick (>1 mm) and dense collagen-rich tissue formation around the implant.
In every 10th serial section 10 fields of view uniformly distributed over the circumference of the implant were evaluated and the herein predominant expression was assigned to an event table. In total, 200 fields of view were analyzed per implant

[5] = system: TRPV1, 2 and 4, TRPA1; experiment: Inducible ion current of TRP receptors in Xenopus oocytes (voltage clamp); format: cell-based, rat; details: 50 mmol/l, 10 and 60 minutes
Description: An established in-vitro model of Xenopus oocytes (Dascal N, 1987 The use of Xenopus oocytes. CRC critical reviews in biochemistry 22, 317-387) was used to study the influence of incubation with PL on ion channels regulated by membrane receptors. Defolliculized oocytes were transfected with cRNA (rat) of TRPV1, 2 and 4, as well as of TRPA1, stored in tissue culture plates and incubated in culture medium (ND 96) at 15° C. under constant motion in the incubator for 7 to 10 days.
Induced leakage currents through activation of the TRP receptors was determined by means of double electrode voltage-clamp technique (Ahern G P, Brooks I M, Miyares R L &Wang X B, 2005, Extracellular cations sensitize and gate capsaicin receptor TRPV1 modulating pain signalling. J Neurosci 25, 5109-5116). Ooocytes were probed with borosilicate glass capillaries (Clark) and connected to a feedback amplifier (Gene clamp Amplifier, Axon instruments). The membrane potential of oocytes was clamped to −60 or −90 mV. The presence of a directive […] current was compared to non-transfected controls. The investigations were performed in a miniature organ bath in calcium-free buffered (Hepes, pH 7.3) NaCl solution. The TRPV1 receptor excitation was initiated by rapidly changing of the bath solution against a capsaicin solution (10 μmol). Results of non-pretreated oocytes were used for normative comparison of subsequent measurements of incubatesd cells. Investigations with incubated cells were carried out in the same way for oocytes transfected with the TRPV2, and TRPV4 and TRPA1 receptors, wherein the receptor agonists cannabidiol (10 μmol) and 4α-PDD (4α-phorbol 12,13-didecanoate, 50 μmol) and innamaldehyde (50 μmol) were used instead of capsaicin.

[6] = Transisomerization of unsaturated fatty acids in coatings on balloon catheters (FTIR); format: physicochemical
Excerpt: The natural phospholipids POPC and SLPE, as well as the analogous nitrated phospholipids as shown in example C(PNOPC) and […]), as well as the phospholipids according to examples […], and S as a mono substance and as a combination of the native phospholipids and the corresponding nitro-carboxylic acid (s)-containing phospholipids mixed in a ratio of 1:1 were used for this investigation. Balloon catheters were coated by means of the Langmuir-Schaefer procedure where the balloon segment was aligned longitudinally and coaxial to the solution surface, dipping into the liquid for approx. 1 mm over the entire length. Then the catheter was slowly rotated around its axis 5 times. […] The solution was cooled and given to the coating solution then. In case of incomplete dissolution of the phospholipids or if they separated when cooled, DMSO was added at a concentration of up to 20 vol.-%, preferably up to 10 vol.-%. After coating, the catheters were vacuum dried for 8 hours in order to remove residual solvent. The abrasion or loss of coating layers was determined by weighing the catheter before and after coating as well as after the mechanical stability test in the tubing system as described above using a high precision balance. In order to examine the long-term stability of the coating, catheters coated with phospholipids were sealed with polyethylene glycol 1000 (Roth, Germany). For that purpose PEG 1000 was melted and mixed with a 10% ethanol solution at 50° C. A portion of the phospholipid-coated balloon catheter was coated by means of dip-coating in this PEG solution at 50° C., and dried thereafter for 8 hours. Stability of cis-conformity of unsaturated fatty acids of the phospholipids investigated was determined after heat treatment at 60° C. for three hours in a heating cabinet. After 24 hours and after 2 months the phospholipids coated on the balloon surface were detached and analyzed. Detachment was carried out in 50 ml of a chloroform:methanol mixture (3:1, v: v). A 10 μl aliquot was used for a FTIR spectroscopy. For this purpose the samples were dropped on a ZnSe ATR crystal and then the solvent was evaporated. Degree of transisomerization was determined using the integral of intensity of proton resonance in comparison to that measured from a cis configuration of the reference substances. Measurements were performed 24 hours after coating, heat treatment and after 2 months of storage at 25° C. under sterile room air conditions.

[7] = system: HeLa, HUVEC and L929 fibroblast; experiment: Volumetric measurement of cells (Coulter counter); format: cell-based; details: time-dependent increase after incubation
Description: (§1) Physiologically occurring phospholipids can be taken up by virtually all cell lines in large quantities. It is known that phospholipids that contain non-physiologically occurring fatty acid residues can cause cell lyses or death. Three cell lines (HeLa, HUVEC and L929 fibroblast) were cultured in a suitable culture medium of 5% FCS at 37° C. and 5% CO2 concentrations to a subconfluent concentration of 1.5×10^5 cells.
SOPC, DOPC, POPC, ONOPC, PNLPC, and the free fatty acids of OA, LA, NOOA, and NOLA were dissolved in 0.5% DMSO. Experiments were performed also with nitro-carboxylic acid-containing phospholipids according to examples N15-N20, G, O3, O5, P2, P5, P8, P9, P11 and Q. PL prepared as aqueous suspensions were added the culture flasks in order to achieve PL concentrations in the culture medium from 10 μmol to 1 mmol. Cell cultures were incubated for 24 h and 48 h. Thereafter, the culture medium was removed and the cells washed twice. Following this, cells suspensions were given in four vials to perform the following analysis:
Volumetric measurement of cells was done in a Histopenz (Sigma) solution with an effective NaCl concentration of 0.9% (approximately 290 mOsm) heated to 37° C. in which the cells were suspended; thereafter the solution was sonified for 2 minutes. Measurements were done using a Coulter counter Z2.

[8] = system: HeLa, HUVEC and L929 fibroblast; experiment: cells; format: cell-based; details: after 48 hours, for the different cell lines; read-out: EC50 concentration (MTT assay)
Description: as §1
SOPC, DOPC, POPC, ONOPC, PNLPC, and the free fatty acids of OA, LA, NOOA, and NOLA were dissolved in 0.5% DMSO. […] Cell cultures were incubated for 24 h and 48 h. Thereafter, the culture medium was removed and the cells washed twice. Following this, cells suspensions were given in four vials to perform the following analysis:
For the determination of viability, phenol red was added to the suspended cells. After 4 h, the medium was renewed and 10 μl of the MTT solution was added. The cells were cultured for 4 hours, and then a 10% SDS solution was pipetted. After 24 h, absorption of formazan crystals was measured at 500 nm using a power wave X (bio-tek instruments, Inc., USA). For the quantitative comparison of toxicity, the EC50 was determined.

- mechanical removal of coating substance and workload to pull the catheter through PTFE tubing [3]: Very similar results
Compound: 1-stearoyl-2-(10-nitrolinoleoyl)-sn-3-glycerophosphocholine and 1-stearoyl-2-(9-nitrolinoleoyl)-sn-3-glycerophosphocholine [Example P2]
- proportion of living cells relative to non-frozen control [1]: 82%
- rate of intact follicles relative to the control group [2]: 85%
- biocompatibility of coated implants compared to natural PLs [4]: improved biocompatibility of implants several-fold

Compound: CCCCCCCC/C=C(\CCCCCCCC(=O)OC[C@H](COP(=O)([O-])OCC[N+](C)(C)C)OC(=O)CCCCCCC/C(=C\CCCCCCCC)[N+](=O)[O-])[N+](=O)[O-] [Example B, 1,2-di-(9-nitrooleoyl)-sn-3-glycerophosphocholine]
- proportion of living cells relative to non-frozen control [1]: 83%
- mechanical removal of coating substance and workload to pull the catheter through PTFE tubing [3]: Very similar results
- inducible membrane channel activity of TRP channels [5]: significant decrease of inducible membrane channel activity
- biocompatibility of coated implants compared to natural PLs [4]: improved biocompatibility of implants several-fold

Compound: CCCCCCCC/C=C(\CCCCCCCC(=O)OC[C@H](COP(=O)(O)OCCN)OC(=O)CCCCCCC/C(=C\CCCCCCCC)[N+](=O)[O-])[N+](=O)[O-] [Example D, 1,2-di-(9-nitrooleoyl)-sn-3-glycero-phosphatidylethanolamine]
- proportion of living cells relative to non-frozen control [1]: 89%
- mechanical removal of coating substance and workload to pull the catheter through PTFE tubing [3]: Very similar results
- inducible membrane channel activity of TRP channels [5]: significant decrease of inducible membrane channel activity
- biocompatibility of coated implants compared to natural PLs [4]: improved biocompatibility of implants several-fold

Compound: CCCCCCCCC=C(CCCCCCCC(=O)OC[C@H](COP(=O)(O)OC[C@H](N)C(=O)O)OC(=O)CCCCCCCC(=CCCCCCCCC)[N+](=O)[O-])[N+](=O)[O-] [Example E, 1,2-di-(9-nitrooleoyl)-sn-3-glycerophosphatidylserine]
- mechanical removal of coating substance and workload to pull the catheter through PTFE tubing [3]: Very similar results
- inducible membrane channel activity of TRP channels [5]: significant decrease of inducible membrane channel activity

- mechanical removal of coating substance and workload to pull the catheter through PTFE tubing [3]: Very similar results
Compound: CCCCCCCC/C=C(\CCCCCCCC(=O)OC[C@H](COP(=O)(O)O)OC(=O)CCCCCCC/C(=C\CCCCCCCC)[N+](=O)[O-])[N+](=O)[O-] [Example G, 1,2-di-(9-nitrooleoyl)-sn-3-glycerophosphate]
- biocompatibility of coated implants compared to natural PLs [4]: improved biocompatibility of implants several-fold

Compound: CCCCCCCC/C=C(\CCCCCCCC(=O)O[C@H](COC(=O)CCCCCCCCCCCCCCC)COP(=O)([O-])OCC[N+](C)(C)C)[N+](=O)[O-] [Example P8, 1-palmitoyl-2-(E-9-nitrooleoyl)-sn-3-glycerophosphocholine]
- rate of intact follicles relative to the control group [2]: 96%
- inducible membrane channel activity of TRP channels [5]: significant decrease of inducible membrane channel activity

- proportion of trans-fatty acids ([6]; after heat treatment (60° C., three hours)): 28%
- degree of transisomerization ([6]; coatings after 2 months): 32%
- degree of transisomerization ([6]; top coating with PEG, after 2 month): 33%
Compound: CCCCC/C=C\C/C=C(\CCCCCCCC(=O)O[C@H](COC(=O)CCCCCCCCCCCCCCCCC)COP(=O)(O)OCCN)[N+](=O)[O-] [Example R, 1-Stearoyl-2-(E-9-nitrolinoleoyl)-sn-3-glycerophosphatidylethanolamine]
- proportion of living cells relative to non-frozen control [1]: 75%
- proportion of living cells relative to non-frozen control ([1]; listed as SNLPE): 80%
- biocompatibility of coated implants compared to natural PLs [4]: improved biocompatibility of implants several-fold

Compound: CCCCC/C=C\C/C=C\CCCCCCCC(=O)O [linoleic acid, Linoleic acid]
- cell volume (increase in size to) [7]: 170%
- EC50 [8]: 240 to 260 µM

Compound: CCCCCCCC/C=C(\CCCCCCCC(=O)O)[N+](=O)[O-] [nitro oleic acid, E-9-nitrooleic acid]
- cell volume (increase in size to) [7]: 140%
- EC50 [8]: 10 to 50 µM

Compound: CCCCC/C=C\C/C=C(\CCCCCCCC(=O)O)[N+](=O)[O-] [nitro-linoleic acid, E-9-nitrolinoleic acid]
- cell volume (increase in size to) [7]: 120%
- EC50 [8]: 50 to 100 µM

Compound: CCCCCCCC/C=C\CCCCCCCC(=O)O [oleic acid, Oleic acid]
- cell volume (increase in size to) [7]: 200%
- EC50 [8]: 180 to 260 µM
